Experimental data: patent US12109197B2, “Combinations of β-lactam compounds and probenecid and uses thereof” (Iterum Therapeutics International Limited, priority 2018, dated 2024)
Several values for one entry are separate records, joined by “and”; a condition that tells them apart may be missing. Equal values may be shown once. Read-outs that look alike come from different tables or passages of the source.

How the values were obtained:
[1] = for Cmax / TAMIC0.5 / TAMIC1.0 / Tmax / AUCtau / AUCinf / AUClast / t1/2: plasma; for Tmax: median (minimum-maximum); for AUCtau: time 0 to 12 hours
Method: Subjects were to be dosed twice a day (every 12 hours) for 6 days and on Day 7 they were to be dosed once. All treatment groups could be run in parallel or sequentially. Subjects were allocated based on the randomization list. Randomization numbers were assigned sequentially as subjects entered into groups on the basis of their order of entry into the study. Subjects who withdrew for reasons unrelated to safety may have been replaced. Blood samples were obtained at prespecified intervals in order to characterize pharmacokinetics.

[2] = assay type: in vivo, human; details: for Tlast / Tmax: median; for TAMIC1: minimum concentration 0.5 μg/mL; for TAMIC2: minimum concentration 1.0 μg/mL
Method: A Phase 1, randomized, investigator-blind, subject-blind, sponsor-open, placebo-controlled, single and multiple dose study of Compound II-2b was further conducted. There were 6 planned cohorts of subjects. Each cohort was planned to enroll 12 subjects, for a total of 72 planned subjects. Subjects in the multidose cohort were dosed for 10 days; new subjects were recruited for each cohort. Subjects in these cohorts, on Days 1 through 9, were dosed BTD (12 hours apart) at approximately 0800 and 2000 hours. On Day 10, subjects were to be dosed only once at approximately 0800 hours.

[3] = assay type: in vivo, human; details: for TAMIC0.5 / TAMIC1.0 / Tmax: median; for Ae24%: percent of administered dose, adjusted for MW; for CLr: renal clearance; for Ae24: urine over 24 hours postdose
Excerpt: The pharmacokinetics of Compound III-2b wer studies in a randomized, subject-blinded, investigator- and sponsor-open, placebo-controlled, multiple-dose study, run in parallel cohorts. There were 7 cohorts of approximately 10 subjects each (4:1 active:placebo).

[4] = 2000 mg BID, Study Day 1, plasma
[5] = 2000 mg BID, Study Day 10, plasma
[6] = Cohort 2: 1 g BID, fasted, Day 1
[7] = Cohort 2: 1 g BID, fasted, Day 7
[8] = Cohort 3: 1.5 g BID, fed, Day 1
[9] = Cohort 3: 1.5 g BID, fed, Day 7
[10] = Cohort 4: 0.5 g BID, fasted, Day 1
[11] = Cohort 4: 0.5 g BID, fasted, Day 7

- AUCtau, GM ([1]; Day 7, With Probenecid): 5325.20 ng·h/mL
- Cmax, GM ([1]; Day 7, With Probenecid): 1532.10 ng/mL
- AUCtau, GM ([1]; Day 7, Without Probenecid): 3084.36 ng·h/mL
- Cmax, GM ([1]; Day 7, Without Probenecid): 1233.18 ng/mL
- AUC of sulopenem on Day 7 compared with Day 1 ([1]; administered alone through the oral route): lower than that on Day 1
- Cmax ([1]; fasted, Day 1): 1699.1 (31.64) ng/mL
- TAMIC0.5 ([1]; fasted, Day 1): 2.6348 (14.85) h
- TAMIC1.0 ([1]; fasted, Day 1): 1.0758 (94.61) h
- Tmax ([1]; fasted, Day 1): 1.0000 (0.4830-2.017) h
- AUCinf ([1]; fasted, Day 7): 2627.8 (18.89) hr*ng/mL
- AUClast ([1]; fasted, Day 7): 2607.4 (19.10) hr*ng/mL
- Cmax ([1]; fasted, Day 7): 1289.4 (39.17) ng/mL
- TAMIC0.5 ([1]; fasted, Day 7): 2.1088 (16.74) h
- TAMIC1.0 ([1]; fasted, Day 7): 0.732 (62.70) h
- t1/2 ([1]; fasted, Day 7): 0.9376 (15.34) h
- Tmax ([1]; fasted, Day 7): 0.9915 (0.5000-1.033) h
- Cmax ([1]; fed, Day 1): 1730.9 (46.66) ng/mL
- TAMIC0.5 ([1]; fed, Day 1): 3.0103 (31.13) h
- TAMIC1.0 ([1]; fed, Day 1): 2.0882 (25.12) h
- Tmax ([1]; fed, Day 1): 1.000 (1.5000-2.983) h
- AUCtau ([1]; fed, Day 1): 4413.7 (27.00) hr*ng/mL
- AUCinf ([1]; fed, Day 7): 3712.7 (24.27) hr*ng/mL
- AUClast ([1]; fed, Day 7): 3537 (25.01) hr*ng/mL
- Cmax ([1]; fed, Day 7): 1179.4 (25.94) ng/mL
- TAMIC0.5 ([1]; fed, Day 7): 2.8507 (31.48) h
- TAMIC1.0 ([1]; fed, Day 7): 1.3191 (62.54) h
- t1/2 ([1]; fed, Day 7): 0.9114 (26.68) h
- Tmax ([1]; fed, Day 7): 1.483 (2.0000-4.000) h
- AUCtau ([1]; fed, Day 7): 3706.4 (24.21) hr*ng/mL
- AUCinf [2, 4]: 18100 ng·h/mL
- AUCtau [2, 4]: 17500 ng·h/mL
- Cmax [2, 4]: 6090 ng/mL
- t1/2 [2, 4]: 1.66 h
- Tlast [2, 4]: 8.00 h
- Tmax [2, 4]: 1.00 h
- TAMIC1 [2, 4]: 6.93
- TAMIC2 [2, 4]: 5.57
- Ae24 ([2]; 2000 mg BID, Study Day 6, urine, sulopenem excreted unchanged over 24 hours): 253000 (26) ug
- Rac ([2]; 2000 mg BID, Study Day 10, accumulation ratio): 0.685
- AUCtau [2, 5]: 12200 ng·h/mL
- Cmax [2, 5]: 5480 ng/mL
- Ctrough [2, 5]: 0.00 ng/mL
- t1/2 [2, 5]: 1.27 h
- Tlast [2, 5]: 8.00 h
- Tmax [2, 5]: 1.00 h
- TAMIC1 [2, 5]: 4.70
- TAMIC2 [2, 5]: 3.61
- AUCtau ([2]; 2000 mg, Day 1): 17500 ng·h/mL
- AUCtau ([2]; 2000 mg, Day 10): 12200 ng·h/mL
- AUCinf ([3]; 500 mg FED, Day 1): 3400 ng·h/mL
- AUCinf ([3]; 500 mg FED, Day 7): 2990 ng·h/mL
- AUCinf ([3]; 1000 mg FED, Day 1): 9430 ng·h/mL
- AUCinf ([3]; 1000 mg FED, Day 7): 7800 ng·h/mL
- AUCinf ([3]; 1000 mg TID FED, Day 1): 8290 ng·h/mL
- AUCinf ([3]; 1000 mg TID FED, Day 7): 6750 ng·h/mL
- AUCinf ([3]; 1000 mg, Day 1): 6680 ng·h/mL
- AUCinf ([3]; 1000 mg, Day 7): 6020 ng·h/mL
- AUCinf ([3]; 1500 mg, Day 1): 12900 ng·h/mL
- AUCinf ([3]; 1500 mg, Day 7): 9950 ng·h/mL
- AUCinf ([3]; Cohort 1: 1 g BID, fed, Day 1): 9430 (13) ng · h/mL
- AUClast ([3]; Cohort 1: 1 g BID, fed, Day 1): 9330 (13) ng · h/mL
- Cmax ([3]; Cohort 1: 1 g BID, fed, Day 1): 4420 (24) ng/mL
- t½ ([3]; Cohort 1: 1 g BID, fed, Day 1): 0.823 (13) h
- TAMIC0.5 ([3]; Cohort 1: 1 g BID, fed, Day 1): 4.35 h
- TAMIC1.0 ([3]; Cohort 1: 1 g BID, fed, Day 1): 3.21 h
- Tmax ([3]; Cohort 1: 1 g BID, fed, Day 1): 1.50 h
- AUCinf ([3]; Cohort 1: 1 g BID, fed, Day 7): 7800 (17) ng · h/mL
- AUClast ([3]; Cohort 1: 1 g BID, fed, Day 7): 7670 (17) ng · h/mL
- Cmax ([3]; Cohort 1: 1 g BID, fed, Day 7): 3770 (23) ng/mL
- t½ ([3]; Cohort 1: 1 g BID, fed, Day 7): 0.761 (11) h
- Rac ([3]; Cohort 1: 1 g BID, fed, Day 7, accumulation ratio): 0.832 (13)
- TAMIC0.5 ([3]; Cohort 1: 1 g BID, fed, Day 7): 3.32 h
- TAMIC1.0 ([3]; Cohort 1: 1 g BID, fed, Day 7): 2.64 h
- Tmax ([3]; Cohort 1: 1 g BID, fed, Day 7): 2.00 h
- Ae24% ([3]; Cohort 1: 1 g BID, fed, Day 7): 19.0 (27) %
- CLr ([3]; Cohort 1: 1 g BID, fed, Day 7): 17.4 (19) L/h
- Ae24 ([3]; Cohort 1: 1 g BID, fed, Day 7): 138.7 (27) mg
- AUCinf [3, 6]: 6680 (20) ng · h/mL
- AUClast [3, 6]: 6770 (22) ng · h/mL
- Cmax [3, 6]: 2760 (13) ng/mL
- t½ [3, 6]: 1.37 (33) h
- TAMIC0.5 [3, 6]: 3.69 h
- TAMIC1.0 [3, 6]: 2.91 h
- Tmax [3, 6]: 1.50 h
- AUCinf [3, 7]: 6020 (16) ng · h/mL
- AUClast [3, 7]: 6070 (19) ng · h/mL
- Cmax [3, 7]: 2410 (33) ng/mL
- t½ [3, 7]: 1.08 (24) h
- Rac ([3]; Cohort 2: 1 g BID, fasted, Day 7, accumulation ratio): 0.910 (11)
- TAMIC0.5 [3, 7]: 4.18 h
- TAMIC1.0 [3, 7]: 2.72 h
- Tmax [3, 7]: 1.75 h
- Ae24% [3, 7]: 10.2 (23) %
- CLr [3, 7]: 12.2 (30) L/h
- Ae24 [3, 7]: 74.4 (23) mg
- AUCinf [3, 8]: 12900 (23) ng · h/mL
- AUClast [3, 8]: 12100 (21) ng · h/mL
- Cmax [3, 8]: 3700 (42) ng/mL
- t½ [3, 8]: 1.20 (14) h
- TAMIC0.5 [3, 8]: 6.34 h
- TAMIC1.0 [3, 8]: 4.81 h
- Tmax [3, 8]: 2.50 h
- AUCinf [3, 9]: 9950 (15) ng · h/mL
- AUClast [3, 9]: 9710 (15) ng · h/mL
- Cmax [3, 9]: 2670 (28) ng/mL
- t½ [3, 9]: 0.901 (14) h
- Rac ([3]; Cohort 3: 1.5 g BID, fed, Day 7, accumulation ratio): 0.809 (14)
- TAMIC0.5 [3, 9]: 5.96 h
- TAMIC1.0 [3, 9]: 4.44 h
- Tmax [3, 9]: 2.51 h
- AUCinf [3, 10]: 3400 (20) ng · h/mL
- AUClast [3, 10]: 3260 (22) ng · h/mL
- Cmax [3, 10]: 1470 (34) ng/mL
- t½ [3, 10]: 0.862 (19) h
- TAMIC0.5 [3, 10]: 2.66 h
- TAMIC1.0 [3, 10]: 1.38 h
- Tmax [3, 10]: 1.03 h
- AUCinf [3, 11]: 2990 (23) ng · h/mL
- AUClast [3, 11]: 2730 (27) ng · h/mL
- Cmax [3, 11]: 1310 (22) ng/mL
- t½ [3, 11]: 0.797 (16) h
- Rac ([3]; Cohort 4: 0.5 g BID, fasted, Day 7, accumulation ratio): 0.873 (29)
- TAMIC0.5 [3, 11]: 2.38 h
- TAMIC1.0 [3, 11]: 0.803 h
- Tmax [3, 11]: 1.50 h
- AUCinf ([3]; Cohort 7: 1 g TID, fed, Day 1): 8290 (6) ng · h/mL
- AUClast ([3]; Cohort 7: 1 g TID, fed, Day 1): 7670 (13) ng · h/mL
- Cmax ([3]; Cohort 7: 1 g TID, fed, Day 1): 3320 (36) ng/mL
- t½ ([3]; Cohort 7: 1 g TID, fed, Day 1): 1.26 (40) h
- TAMIC0.5 ([3]; Cohort 7: 1 g TID, fed, Day 1): 4.90 h
- TAMIC1.0 ([3]; Cohort 7: 1 g TID, fed, Day 1): 3.32 h
- Tmax ([3]; Cohort 7: 1 g TID, fed, Day 1): 1.75 h
- AUCinf ([3]; Cohort 7: 1 g TID, fed, Day 7): 6750 (11) ng · h/mL
- AUClast ([3]; Cohort 7: 1 g TID, fed, Day 7): 6230 (16) ng · h/mL
- Cmax ([3]; Cohort 7: 1 g TID, fed, Day 7): 2090 (28) ng/mL
- t½ ([3]; Cohort 7: 1 g TID, fed, Day 7): 0.790 (2) h
- Rac ([3]; Cohort 7: 1 g TID, fed, Day 7, accumulation ratio): 0.827 (21)
- TAMIC0.5 ([3]; Cohort 7: 1 g TID, fed, Day 7): 4.62 h
- TAMIC1.0 ([3]; Cohort 7: 1 g TID, fed, Day 7): 3.22 h
- Tmax ([3]; Cohort 7: 1 g TID, fed, Day 7): 4.00 h
- Rac ([3]; in vivo): 1.10 (24)
SMILES: CCC(CC)C(=O)OCOC(=O)C1=C(S[C@H]2CC[S@@+]([O-])C2)S[C@@H]2[C@@H]([C@@H](C)O)C(=O)N12 [Compound III-2b, Sulopenem Etzadroxil]
- AUC of sulopenem on Day 7 compared with Day 1 ([1]; co-administered with probenecid): increased on Day 7 beyond that seen on Day 1
- AUCtau ([1]; fasted, Day 1): 3623.8 (19.19) hr*ng/mL and 3623.8 hr*ng/mL
- AUCtau ([1]; fasted, Day 7): 2626.3 (18.89) hr*ng/mL and 2626.3 hr*ng/mL
- Ae % ([2]; 2000 mg BID, Study Day 6, urine, percent of sulopenem dose excreted): 17.3 (26) %
